# Measurements from US11090285B2, “Treatment of circadian rhythm disorders” (Vanda Pharmaceuticals Inc., priority 2013, dated 2021).
# Tests used:
# [1] = Solubility and pH of saturated solution; type: physicochemical
# Description: Tasimelteon is a white to off-white powder with a melting point of about 78° C. […] Tasimelteon has 2-4 times greater affinity for MT2R relative to MT1R.
# patients with Non-24 = assay: SET Study, Phase III randomized, double-masked, placebo-controlled; type: in vivo, human
# Description: Specifically, patients were orally administered 20 mg tasimelteon per day for at least 12 weeks prior to re-estimating tau. Patients were selected for randomization or open label based on baseline tau estimates. Drug was administered at about 1 hour prior to target sleep time, as determined by patients based on a 9 hour nighttime sleep period.
# The SET study was an 84 patient randomized, double-masked, placebo-controlled study in patients with Non-24. The primary endpoints for this study were Entrainment of the melatonin (aMT6s) rhythm to the 24-hour clock and Clinical Response as measured by Entrainment plus a score of greater than or equal to 3 on the following N24CRS:
# The SET study also assessed a number of secondary endpoints including Entrainment of cortisol rhythm and a broad range of clinical sleep and wake parameters. These parameters included improvement in the total nighttime sleep in the worst 25% of nights (LQ-nTST), decrease in the total daytime sleep duration in the worst 25% of days (UQ-dTSD) and midpoint of sleep timing (MoST) which is derived from a combination of the sleep reported for both nighttime and daytime. CGI-C is a seven-point rating scale of global functioning with lower scores indicating larger improvements.
# [2] = tested on: blind individuals with Non-24; assay: RESET Study, randomized withdrawal, maintenance of effect; type: in vivo, human
# Description: Patients were treated with tasimelteon for at least twelve weeks during an open-label run-in phase during the SET Study. Patients who responded to tasimelteon treatment during the run-in phase were then randomized to receive either placebo or tasimelteon (20 mg/day) for 2 months.
# The primary endpoint of the RESET Study was the maintenance of effect as measured by entrainment of the melatonin (aMT6s) rhythm.
# The RESET study also assessed a number of secondary endpoints including maintenance of entrainment of the cortisol rhythm and a range of sleep and wake parameters including LQ-nTST (total nighttime sleep in the worst 25% of nights), UQ-dTSD (total daytime sleep duration in the worst 25% of days) and MoST (midpoint of sleep timing from both nighttime and daytime sleep).
# Non-24 patients = assay: Entrainment by peak aMT6s level and beta blocker use (clinical studies); type: in vivo, human
# Description: Results of clinical study also show a strong correlation between endogenous melatonin and efficacy of tasimelteon in entraining patients to a 24 hour circadian rhythm. The following table (Table 3A) compares the peak aMT6s levels in the 24 entrained and 23 non-entrained patients.
# Data from these studies currently available also indicate that beta blocker therapy is […] related to efficacy of tasimelteon, i.e., patients receiving beta blocker therapy were less likely to become entrained than patients who were not.
# [3] = Pharmacokinetics on co-administration of tasimelteon and fluvoxamine; type: in vivo, human
# Description: Twenty-four healthy male or female subjects between the ages of 18 and 55 years of age (inclusive) who were non-smokers with a body mass index (BMI) of ≥18 and ≤35 kg/m2 participated in this open-label, single-sequence study conducted at one site. On day 1, subjects were administered […] of tasimelteon.
# [4] = Tasimelteon exposure with ketoconazole (CYP3A4 inhibitor); type: in vivo, human; details: single 20 mg dose on fifth day of ketoconazole 400 mg per day vs tasimelteon alone
# Description: Therefore, in cases where an individual is co-administered a CYP3A4 inhibitor, the dose of tasimelteon administered may be less than if administered alone or in the absence of a CYP3A4 inhibitor.
# For example, a pharmaceutical composition providing a dosage equivalent to a daily dosage between about 5 mg and about 15 mg of tasimelteon may be co-administered with a […] inhibitor.
# [5] = Tasimelteon exposure with Rifampin (CYP3A4 inducer); type: in vivo, human; details: single 20 mg dose after 11 days of 600 mg Rifampin
# Description: For example, when a single 20 mg dose of tasimelteon was administered after 11 days of the administration of 600 mg of Rifampin, tasimelteon mean exposure was reduced by approximately 89%. Therefore, in cases where an individual is co-administered a CYP3A4 inducer, the dose of tasimelteon administered may be greater than if administered alone or in the absence of a CYP3A4 inducer.
# [6] = Effect of smoking on pharmacokinetics of tasimelteon and metabolites; type: in vivo, human
# Excerpt: Smokers were defined as those smoking 10 or more cigarettes per day. Non-smokers were defined as those smoking no cigarettes per day.
# [7] = 20 mg/day, SET secondary endpoint
# [8] = 20 mg/day, sensitivity analysis
# [9] = RESET, higher number indicates improvement
# [10] = co-administration of fluvoxamine vs tasimelteon alone
smiles,measurement,setting,value
"CCC(=O)NC[C@@H]1C[C@H]1c1cccc2c1CCO2 (relative stereo) [Tasimelteon, trans-N-[[2-(2,3-dihydrobenzofuran-4-yl)cycloprop-1yl]methyl]propanamide]",effect of pH on aqueous solubility,[1],practically unaffected by pH
same,native pH of a saturated solution in water,[1],8.5
same,solubility in organic solvents,"[1]; 95% ethanol, methanol, acetonitrile, ethyl acetate, isopropanol, PEG-300 and PEG-400",very soluble or freely soluble
same,solubility in water,[1]; water,only slightly soluble
same,Entrainment (aMT6s),"patients with Non-24; 20 mg/day oral, SET primary endpoint",20.0%
same,LQ-nTST (LS mean minutes),"patients with Non-24; 20 mg/day, SET",57.0 min
same,MoST (LS mean minutes),"patients with Non-24; 20 mg/day, SET",34.8 min
same,Clinical Response (Entrainment + N24CRS >=3),"patients with Non-24; 20 mg/day, SET primary endpoint",23.7%
same,Entrainment (cortisol),patients with Non-24; [7],17.5%
same,N24CRS (LS mean minutes),patients with Non-24; [7],1.77 min
same,UQ-dTSD (LS mean minutes),"patients with Non-24; 20 mg/day, SET, smaller numbers indicate improvement",-46.2 min
same,Clinical Response (Entrainment + N24CRS >=2),patients with Non-24; [8],28.9%
same,N24CRS >=2,patients with Non-24; [8],57.9%
same,N24CRS >=3,patients with Non-24; [8],28.9%
same,CGI-C (LS mean minutes),"patients with Non-24; 20 mg/day, smaller numbers indicate improvement",2.6 min
same,safety and tolerability,patients with Non-24; SET study,safe and well tolerated
same,percentage of entrained patients,"patients with Non-24; on drug at least two circadian cycles, not on beta blockers, tau<24.7 hours",approximately 85%
same,LQ-nTST and UQ-dTSD >=90 min,patients with Non-24; only subjects with significant sleep and nap problems at baseline,23.8%
same,LQ-nTST and UQ-dTSD >=45 min,patients with Non-24; sensitivity analysis,31.6%
same,maintenance of entrainment (cortisol),"[2]; 20 mg/day, RESET",80.0%
same,Maintenance of entrainment (aMT6s),"[2]; 20 mg/day, RESET primary endpoint",90.0%
same,LQ-nTST (LS mean minutes),[2]; [9],-6.6 min
same,MoST (LS mean minutes),[2]; [9],19.8 min
same,UQ-dTSD (LS mean minutes),"[2]; RESET, lower number indicates improvement",-9.6 min
same,"LQ-nTST (LS mean minutes), Difference",[2]; tasimelteon vs placebo,67.2 min
same,"MoST (LS mean minutes), Difference",[2]; tasimelteon vs placebo,36.0 min
same,"UQ-dTSD (LS mean minutes), Difference",[2]; tasimelteon vs placebo,-59.4 min
same,"maintenance of entrainment (cortisol), Difference",[2]; tasimelteon vs placebo,60.0%
same,Entrained patients,Non-24 patients; Peak aMT6s <1500 ng/hr,12 (41%)
same,Non-entrained patients,Non-24 patients; Peak aMT6s <1500 ng/hr,17 (59%)
same,Entrained patients,Non-24 patients; Peak aMT6s <2000 ng/hr,13 (38%)
same,Non-entrained patients,Non-24 patients; Peak aMT6s <2000 ng/hr,21 (62%)
same,Entrained patients,Non-24 patients; Peak aMT6s ≥1500 ng/hr,12 (67%)
same,Non-entrained patients,Non-24 patients; Peak aMT6s ≥1500 ng/hr,6 (33%)
same,Entrained patients,Non-24 patients; Peak aMT6s ≥2000 ng/hr,11 (85%)
same,Non-entrained patients,Non-24 patients; Peak aMT6s ≥2000 ng/hr,2 (15%)
same,Entrained patients,Non-24 patients; Peak aMT6s: All (47 patients),24 (51%)
same,Non-entrained patients,Non-24 patients; Peak aMT6s: All (47 patients),23 (49%)
same,Entrained patients,Non-24 patients; Taking Beta Blocker: No,24
same,Non-entrained patients,Non-24 patients; Taking Beta Blocker: No,19
same,Entrained patients,Non-24 patients; Taking Beta Blocker: Yes,0
same,Non-entrained patients,Non-24 patients; Taking Beta Blocker: Yes,4
same,patients who responded to therapy,Non-24 patients; baseline aMT6s excretion rate >2000 ng/hr,Eleven of thirteen
same,CL/F,"[3]; Day 1, 5.667 mg tasimelteon alone",107 ± 555 mL/min
same,CL/F,"[3]; Day 8, 5.667 mg tasimelteon + 50 mg fluvoxamine",189 ± 155 mL/min
same,"AUC (inf), Geometric Mean Ratio",[3]; Day 8 vs Day 1,653.36%
same,"CL/F, Geometric Mean Ratio",[3]; Day 8 vs Day 1,15.31%
same,"Cmax, Geometric Mean Ratio",[3]; Day 8 vs Day 1,232.74%
same,"t½, Geometric Mean Ratio",[3]; Day 8 vs Day 1,211.82%
same,increase of AUC0-inf,[3]; [10],approximately 7 fold
same,increase of Cmax,[3]; [10],approximately 2 fold
same,increase of tasimelteon exposure,[4],approximately 54%
same,reduction of tasimelteon mean exposure,[5],approximately 89%
same,CL/F,[6]; Non-Smokers,"1,482 ± 1,008 mL/min"
same,CL/F,[6]; Smokers,"2,290 ± 1,232 mL/min"
same,"AUC (inf), Geometric Mean Ratio",[6]; Smokers vs Non-Smokers,60.14%
same,"CL/F, Geometric Mean Ratio",[6]; Smokers vs Non-Smokers,166.27%
same,"Cmax, Geometric Mean Ratio",[6]; Smokers vs Non-Smokers,63.98%
same,"Vz/F, Geometric Mean Ratio",[6]; Smokers vs Non-Smokers,144.39%
same,"t½, Geometric Mean Ratio",[6]; Smokers vs Non-Smokers,86.84%
